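Five compound concentrations were applied to cells in 96-well plates for 48 hours; endpoints were derived by simple linear interpolation of the resulting dose-response curve. The concentration for 50% growth inhibition is given as GI50.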 Calls of active or inactive are those of the source. Rule as the data show it: active = GI50 up to about 1.1 µM and inactive = higher.
What was measured:
Assay in all cases: NCI anticancer screen, dose series, 48 h
EKVX = test system: EKVX
SK-OV-3 = test system: SK-OV-3
MDA-N = test system: MDA-N
A549 = test system: A549
M14 = test system: M14
CCRF-CEM = test system: CCRF-CEM
HT-29 = test system: HT-29
SNB-75 = test system: SNB-75
HOP-62 = test system: HOP-62
SN12C = test system: SN12C
SR = test system: SR
LOX IMVI = test system: LOX IMVI
SNB-19 = test system: SNB-19
HCT-116 = test system: HCT-116
DU-145 = test system: DU-145
NCI-H23 = test system: NCI-H23
OVCAR-8 = test system: OVCAR-8
OVCAR-5 = test system: OVCAR-5
PC-3 = test system: PC-3

| SMILES | GI50 (EKVX) | GI50 (SK-OV-3) | GI50 (MDA-N) | GI50 (A549) | GI50 (M14) | GI50 (CCRF-CEM) | GI50 (HT-29) | GI50 (SNB-75) | GI50 (HOP-62) | GI50 (SN12C) | GI50 (SR) | GI50 (LOX IMVI) | GI50 (SNB-19) | GI50 (HCT-116) | GI50 (DU-145) | GI50 (NCI-H23) | GI50 (OVCAR-8) | GI50 (OVCAR-5) | GI50 (PC-3) |
| --- | --- | --- | --- | --- | --- | --- | --- | --- | --- | --- | --- | --- | --- | --- | --- | --- | --- | --- | --- |
| Cn1c(=O)c2[nH]c(C3CC(=O)CC(c4nc5c([nH]4)c(=O)n(C)c(=O)n5C)N3)nc2n(C)c1=O (stereo not given) | > 100 µM (inactive) | > 100 µM (inactive) | > 100 µM (inactive) | > 100 µM (inactive) | > 100 µM (inactive) | 38.3 µM (inactive) | > 100 µM (inactive) | > 100 µM (inactive) | > 100 µM (inactive) | > 100 µM (inactive) | 95.1 µM (inactive) | > 100 µM (inactive) | > 100 µM (inactive) | > 100 µM (inactive) | > 100 µM (inactive) | > 100 µM (inactive) | > 100 µM (inactive) | > 100 µM (inactive) | > 100 µM (inactive) |
| COC1CC(OC2C(C)OC(OC3C(C)OC(OC4C(C)OC(O[C@H]5CC[C@@]6(C)C(=CC[C@]7(O)[C@@H]6C[C@@H](OC(=O)/C=C(\C)C(C)C)[C@@]6(C)[C@]7(O)CC[C@@]6(O)C(C)=O)C5)CC4OC)CC3OC)CC2OC)OC(C)C1O (stereo not given in full) | > 12.5 µM (inactive) | > 12.5 µM (inactive) | > 12.5 µM (inactive) | > 12.5 µM (inactive) | > 12.5 µM (inactive) | > 12.5 µM (inactive) | > 12.5 µM (inactive) | > 12.5 µM (inactive) | > 12.5 µM (inactive) | > 12.5 µM (inactive) | > 12.5 µM (inactive) | > 12.5 µM (inactive) | > 12.5 µM (inactive) | > 12.5 µM (inactive) | > 12.5 µM (inactive) | > 12.5 µM (inactive) | > 12.5 µM (inactive) | > 12.5 µM (inactive) | > 12.5 µM (inactive) |
| COC(=O)C1Cc2ccc(O)c(O)c2CN1 (stereo not given) | > 100 µM (inactive) | > 100 µM (inactive) | 16.4 µM (inactive) | > 100 µM (inactive) | 16.2 µM (inactive) | 35 µM (inactive) | 23.3 µM (inactive) | 19.5 µM (inactive) | > 100 µM (inactive) | 16.4 µM (inactive) | 29.1 µM (inactive) | 14.8 µM (inactive) | 38.3 µM (inactive) | 23.7 µM (inactive) | 30.7 µM (inactive) | 16.6 µM (inactive) | > 10 µM (inactive) | 27.5 µM (inactive) | 26.1 µM (inactive) |
| CN(C)c1n/c(=N/Cc2ccccc2)ss1 | > 10 µM (inactive) | > 10 µM (inactive) | > 10 µM (inactive) | > 10 µM (inactive) | > 10 µM (inactive) | 0.646 µM (active) | > 10 µM (inactive) | > 10 µM (inactive) | > 10 µM (inactive) | > 10 µM (inactive) | 0.587 µM (active) | > 5.77 µM (inactive) | > 10 µM (inactive) | > 10 µM (inactive) | > 10 µM (inactive) | > 10 µM (inactive) | > 10 µM (inactive) | > 10 µM (inactive) | > 10 µM (inactive) |
| O=C1C=CC(=O)C(CNc2ccc(C(=O)OCc3ccccc3)cc2)=C1 | 10.4 µM (inactive) | 12.6 µM (inactive) | 6.85 µM (inactive) | 14.5 µM (inactive) | 7.05 µM (inactive) | 0.661 µM (active) | 15.2 µM (inactive) | 5.25 µM (inactive) | 17.3 µM (inactive) | 6.18 µM (inactive) | 1.29 µM (inactive) | 4.14 µM (inactive) | 13.4 µM (inactive) | 5.3 µM (inactive) | 12.2 µM (inactive) | 10.2 µM (inactive) | 3.98 µM (inactive) | 15.6 µM (inactive) | 3.36 µM (inactive) |

Source: ChEMBL document CHEMBL1201862, “PubChem BioAssay data set” (2004)
